In PubChem BioAssay AID330 (DTP/NCI, 2004):
“And” between values parts separate entries of the source, which are not always exact repeats. Equal entries are not always repeated. Toxic doses and inconclusive results are not listed.

System: P388 leukemia ip, CD2F1 mice, survival T/C
Assay: NCI In Vivo Anticancer Drug Screen. Data for tumor model P388 Leukemia (intraperitoneal) in CD2F1 (CDF1) mice
Conditions: endpoint: median survival time, higher = longer survival
In short: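 Mice carrying the transplanted tumor received test compound or vehicle. Survival was recorded in each group, and the value is the treated-group measurement divided by that of the vehicle-treated control group.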

[1] = dose: 50.0 mg/kg/injection, schedule: Q01DX005 (ip), vehicle: Klucel (hydroxypropylcellulose) (HPC)
[2] = dose: 100.0 mg/kg/injection, schedule: Q01DX005 (ip), vehicle: Klucel (hydroxypropylcellulose) (HPC)
[3] = dose: 200.0 mg/kg/injection, schedule: Q01DX005 (ip), vehicle: Klucel (hydroxypropylcellulose) (HPC)
[4] = dose: 60.0 mg/kg/injection, schedule: Q01DX005 (ip), vehicle: Klucel (hydroxypropylcellulose) (HPC)
[5] = dose: 50.0 mg/kg/injection, schedule: Q01DX009 (ip), vehicle: saline with Tween-80
[6] = dose: 100.0 mg/kg/injection, schedule: Q01DX009 (ip), vehicle: saline with Tween-80
[7] = dose: 200.0 mg/kg/injection, schedule: Q01DX009 (ip), vehicle: saline with Tween-80
[8] = dose: 100.0 mg/kg/injection, schedule: Q01DX001 (ip), vehicle: saline with Tween-80
[9] = dose: 60.0 mg/kg/injection, schedule: Q01DX005 (ip), vehicle: saline with Tween-80
[10] = dose: 120.0 mg/kg/injection, schedule: Q01DX005 (ip), vehicle: saline with Tween-80

For `O=c1[nH]c(=S)c2c(n1CCCO)CCC2`, the T/C [1] was 97 % of control, the T/C [2] was 101 % of control and the T/C [3] was 105 % of control.

In the case of `C#CCOC(=O)c1ccc(C(=O)OCC#C)cc1`, the T/C (dose: 100.0 mg/kg/injection, schedule: Q04DX003 (ip), vehicle: saline with Tween-80) is reported as 100 % of control and the T/C (dose: 200.0 mg/kg/injection, schedule: Q04DX003 (ip), vehicle: saline with Tween-80) is reported as 90 % of control.

For `C[CH2][Sn]([CH2]C)[CH2]C.C[CH2][Sn]([CH2]C)[CH2]C`, the T/C (dose: 12.5 mg/kg/injection, schedule: Q01DX005 (ip), vehicle: Klucel (hydroxypropylcellulose) (HPC)) was 105 % of control and 97 % of control, the T/C (dose: 25.0 mg/kg/injection, schedule: Q01DX005 (ip), vehicle: Klucel (hydroxypropylcellulose) (HPC)) was 101 % of control and 114 % of control and the T/C [1] was 110 % of control and 97 % of control. The T/C [2] was 113 % of control.

In the case of `O=C1Nc2ccccc2C(=O)C1(O)c1ccccc1` (configuration not stated), the T/C [4] is reported as 105 % of control, the T/C (dose: 120.0 mg/kg/injection, schedule: Q01DX005 (ip), vehicle: Klucel (hydroxypropylcellulose) (HPC)) is reported as 103 % of control and the T/C (dose: 240.0 mg/kg/injection, schedule: Q01DX005 (ip), vehicle: Klucel (hydroxypropylcellulose) (HPC)) is reported as 94 % of control.

In the case of `COC1/C=C/OC2(C)Oc3c(C)c(O)c4c(O)c(c(/C=N/N(C)c5ncnc6c5ncn6C5OC(CO)C(O)C5O)c(O)c4c3C2=O)NC(=O)C(C)=C/C=C/C(C)C(O)C(C)C(O)C(C)C(OC(C)=O)C1C` (configuration not stated), the T/C [5] is reported as 100 % of control, the T/C [6] is reported as 102 % of control and the T/C [7] is reported as 102 % of control.

For `CCOC(=O)N1CCc2cc(OC)c(OC)cc2/C1=C/c1cc(OC)c(OC)cc1Br`, the T/C (dose: 12.5 mg/kg/injection, schedule: Q01DX009 (ip), vehicle: other) was 94 % of control, the T/C (dose: 25.0 mg/kg/injection, schedule: Q01DX009 (ip), vehicle: other) was 96 % of control and the T/C (dose: 50.0 mg/kg/injection, schedule: Q01DX009 (ip), vehicle: other) was 96 % of control. The T/C (dose: 100.0 mg/kg/injection, schedule: Q01DX009 (ip), vehicle: other) was 93 % of control and the T/C (dose: 200.0 mg/kg/injection, schedule: Q01DX009 (ip), vehicle: other) was 93 % of control.

In the case of `COc1cc(S(=O)(=O)O)ccc1N=N/C(=N\Nc1ccc(S(=O)(=O)O)cc1OC)C(N)=O`, the T/C [1] is reported as 100 % of control, the T/C [2] is reported as 108 % of control and 92 % of control and the T/C [3] is reported as 103 % of control and 93 % of control.

`Cc1cc2c(C)c(-c3ccccc3)c(=O)oc2c(C#N)c1C` was tested, and the T/C (dose: 15.0 mg/kg/injection, schedule: Q01DX005 (ip), vehicle: Klucel (hydroxypropylcellulose) (HPC)) was 104 % of control, the T/C (dose: 30.0 mg/kg/injection, schedule: Q01DX005 (ip), vehicle: Klucel (hydroxypropylcellulose) (HPC)) was 95 % of control and the T/C [4] was 90 % of control and 95 % of control.

`CS/C(Nc1ccccc1)=C1\CCCn2c1nc1ccccc1c2=O` was tested, and the T/C (dose: 25.0 mg/kg/injection, schedule: Q01DX001 (ip), vehicle: saline with Tween-80) was 105 % of control, the T/C (dose: 50.0 mg/kg/injection, schedule: Q01DX001 (ip), vehicle: saline with Tween-80) was 99 % of control and the T/C [8] was 90 % of control and 91 % of control.

`Oc1c(Cl)cc(Cl)cc1C1CC(c2ccccc2Cl)=NN1c1ccccc1` (configuration not stated) was tested, and the T/C [5] was 96 % of control, the T/C [6] was 95 % of control and the T/C [7] was 97 % of control.

With `CC[C@H]1CN2CCc3cc(OC)c(OC)cc3[C@@H]2C[C@@H]1C[C@H]1NCCc2cc(OC)c(OC)cc21` the T/C (dose: 1.0 mg/kg/injection, schedule: Q01DX009 (ip), vehicle: water) was 112 % of control and 118 % of control, the T/C (dose: 4.0 mg/kg/injection, schedule: Q01DX009 (ip), vehicle: water) was 154 % of control and the T/C (dose: 4.32 mg/kg/injection, schedule: Q04DX003 (ip), vehicle: saline) was 118 % of control and 122 % of control. The T/C (dose: 5.0 mg/kg/injection, schedule: Q04DX003 (ip), vehicle: saline) was 121 % of control, the T/C (dose: 5.18 mg/kg/injection, schedule: Q04DX002 (ip), vehicle: saline) was 106 % of control and the T/C (dose: 5.18 mg/kg/injection, schedule: Q04DX003 (ip), vehicle: saline) was 122 % of control. For the same compound, the T/C (dose: 7.2 mg/kg/injection, schedule: Q04DX003 (ip), vehicle: saline) was 123 % of control, the T/C (dose: 8.0 mg/kg/injection, schedule: Q01DX009 (ip), vehicle: water) was 166 % of control and 183 % of control and the T/C (dose: 8.64 mg/kg/injection, schedule: Q04DX003 (ip), vehicle: saline) was 122 % of control. The T/C (dose: 12.0 mg/kg/injection, schedule: Q04DX003 (ip), vehicle: saline) was 153 % of control, the T/C (dose: 14.4 mg/kg/injection, schedule: Q04DX002 (ip), vehicle: saline) was 151 % of control and 156 % of control and the T/C (dose: 14.4 mg/kg/injection, schedule: Q04DX003 (ip), vehicle: saline) was 153 % of control. The T/C (dose: 16.0 mg/kg/injection, schedule: Q01DX009 (ip), vehicle: water) was 115 % of control, the T/C (dose: 20.0 mg/kg/injection, schedule: Q04DX003 (ip), vehicle: saline) was 169 % of control and 174 % of control and 175 % of control and the T/C (dose: 24.0 mg/kg/injection, schedule: Q04DX002 (ip), vehicle: saline) was 175 % of control and 177 % of control. The T/C (dose: 24.0 mg/kg/injection, schedule: Q04DX003 (ip), vehicle: saline) was 183 % of control and 213 % of control and the T/C (dose: 33.3 mg/kg/injection, schedule: Q04DX003 (ip), vehicle: saline) was 224 % of control and 94 % of control.

With `CCN(CC)CCO/N=C1\CC(c2ccc(OC)c(OC)c2)Oc2ccccc21` (configuration not stated) the T/C (dose: 15.0 mg/kg/injection, schedule: Q01DX005 (ip), vehicle: saline) was 100 % of control, the T/C (dose: 30.0 mg/kg/injection, schedule: Q01DX005 (ip), vehicle: saline) was 114 % of control and the T/C (dose: 60.0 mg/kg/injection, schedule: Q01DX005 (ip), vehicle: saline) was 100 % of control and 105 % of control.

For `COc1ccc2c(C)cc(NNC(N)=S)nc2c1`, the T/C [1] was 104 % of control and 107 % of control and the T/C [2] was 111 % of control and 120 % of control.

In the case of `COC(=O)/C=C/N1CCCC1`, the T/C (dose: 25.0 mg/kg/injection, schedule: Q01DX009 (ip), vehicle: saline with Tween-80) is reported as 101 % of control, the T/C [5] is reported as 108 % of control and the T/C [6] is reported as 101 % of control. The T/C [7] was 92 % of control.

With `N=C(N)n1cc(/C=N/N=C(N)N)cn1` the T/C [9] was 102 % of control and the T/C [10] was 103 % of control.

For `O=C1OC(=O)C2C1C1C(c3ccccc3)=C(c3ccccc3)C2C2C(=O)OC(=O)C21` (configuration not stated), the T/C [9] was 103 % of control, the T/C [10] was 111 % of control and the T/C (dose: 240.0 mg/kg/injection, schedule: Q01DX005 (ip), vehicle: saline with Tween-80) was 116 % of control.

With `NC(N)=NCC(N)C(=O)O` (configuration not stated) the T/C [1] was 101 % of control, the T/C [2] was 104 % of control and the T/C [3] was 104 % of control.

In the case of `COc1c(C)n(C)n(-c2ccccc2)c1=O`, the T/C (dose: 6.25 mg/kg/injection, schedule: Q01DX005 (ip), vehicle: saline) is reported as 108 % of control, the T/C (dose: 12.5 mg/kg/injection, schedule: Q01DX005 (ip), vehicle: saline) is reported as 98 % of control and the T/C (dose: 25.0 mg/kg/injection, schedule: Q01DX005 (ip), vehicle: saline) is reported as 108 % of control. The T/C (dose: 50.0 mg/kg/injection, schedule: Q01DX005 (ip), vehicle: saline) was 102 % of control, the T/C (dose: 100.0 mg/kg/injection, schedule: Q01DX005 (ip), vehicle: saline) was 105 % of control and the T/C (dose: 200.0 mg/kg/injection, schedule: Q01DX005 (ip), vehicle: saline) was 102 % of control.

In the case of `COc1ccc2c(C(=O)O)cc3c4ccccc4ncc3c2c1`, the T/C (dose: 12.5 mg/kg/injection, schedule: Q01DX009 (ip), vehicle: distilled water + Tween-80) is reported as 100 % of control, the T/C (dose: 25.0 mg/kg/injection, schedule: Q01DX009 (ip), vehicle: distilled water + Tween-80) is reported as 95 % of control and the T/C (dose: 50.0 mg/kg/injection, schedule: Q01DX009 (ip), vehicle: distilled water + Tween-80) is reported as 98 % of control. The T/C (dose: 100.0 mg/kg/injection, schedule: Q01DX009 (ip), vehicle: distilled water + Tween-80) was 96 % of control and the T/C (dose: 200.0 mg/kg/injection, schedule: Q01DX009 (ip), vehicle: distilled water + Tween-80) was 99 % of control.

In the case of `COc1ccc(C(C)c2cc3c(cc2OC)OCO3)c(C)c1` (configuration not stated), the T/C [1] is reported as 116 % of control, the T/C [2] is reported as 92 % of control and the T/C [3] is reported as 119 % of control.

With `Nc1nnc2nc(C(C(=O)/C=C\c3cccc(O)c3)c3nc4nnc(N)n4[nH]c3=O)c(=O)[nH]n12` the T/C (dose: 50.0 mg/kg/injection, schedule: Q01DX005 (ip), vehicle: saline with Tween-80) was 95 % of control, the T/C (dose: 100.0 mg/kg/injection, schedule: Q01DX005 (ip), vehicle: saline with Tween-80) was 94 % of control and the T/C (dose: 200.0 mg/kg/injection, schedule: Q01DX005 (ip), vehicle: saline with Tween-80) was 100 % of control.

With `O=C1CC2C(CC3OC(=O)C4C3C23COC4(O)C(O)C3)c2occc21` (configuration not stated) the T/C [8] was 104 % of control and the T/C (dose: 200.0 mg/kg/injection, schedule: Q01DX001 (ip), vehicle: saline with Tween-80) was 101 % of control.

For `Nc1ccc(-c2csc(COc3ccccc3)n2)cc1`, the T/C (dose: 100.0 mg/kg/injection, schedule: Q01DX009 (ip), vehicle: Klucel (hydroxypropylcellulose) (HPC)) was 106 % of control and the T/C (dose: 200.0 mg/kg/injection, schedule: Q01DX009 (ip), vehicle: Klucel (hydroxypropylcellulose) (HPC)) was 103 % of control.
